Measurements reported in the supplement of paper PMC10307832.

Tests used:
Assay in all cases: relative viability (nuclei count vs DMSO), 5 days (fraction); higher = more cells survive
BMX-IN-1 = compound: C=CC(=O)Nc1cc(-n2c(=O)ccc3cnc4ccc(-c5ccc(NS(C)(=O)=O)cc5)cc4c32)ccc1C [BMX-IN-1]
How it was run: (§1)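 Viability was read as treated-well nuclei divided by vehicle-well nuclei, using the median across plates. Lung cancer cell lines in 1536-well plates were kept overnight at 37 °C, pinned with five √10-spaced library-drug doses, and after 5 days were Hoechst-stained, imaged at 4× and counted in MetaXpress. Plates passed only with control CV below 25% and at least one doubling.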

Ibrutinib = compound: C=CC(=O)N1CCC[C@@H](n2nc(-c3ccc(Oc4ccccc4)cc3)c3c(N)ncnc32)C1 [Ibrutinib]
How it was run: as §1

PAC-1 = compound: C=CCc1cccc(/C=N/NC(=O)CN2CCN(Cc3ccccc3)CC2)c1O [PAC-1]
How it was run: as §1

Ibrutinib + Alpelisib = compound: C=CC(=O)N1CCC[C@@H](n2nc(-c3ccc(Oc4ccccc4)cc3)c3c(N)ncnc32)C1 [Ibrutinib] + Cc1nc(NC(=O)N2CCC[C@H]2C(N)=O)sc1-c1ccnc(C(C)(C)C(F)(F)F)c1 [Alpelisib] (partner 2 µM)
How it was run: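 Cells from lung cancer lines were seeded into 1536-well plates and, one day later, dosed by pin tool. Treatments were either a single drug or a fixed dose of an anchor drug with five library-drug doses (not always all listed) in √10 steps. After 5 days, nuclei were stained in a one-step fixation (final 0.05% Triton X-100, 1% formaldehyde, 1 ug/ml Hoechst) and counted on 4× images, and relative viability is the treated-to-vehicle nuclei ratio, as the median of duplicate plates.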

Row | Cell Line | relative viability (BMX-IN-1; 0.2 µM) | relative viability (BMX-IN-1; 0.6325 µM) | relative viability (BMX-IN-1; 2 µM) | relative viability (Ibrutinib; 0.005 µM) | relative viability (Ibrutinib; 0.01581 µM) | relative viability (Ibrutinib; 0.05 µM) | relative viability (Ibrutinib; 0.1581 µM) | relative viability (Ibrutinib; 0.5 µM) | relative viability (PAC-1; 0.02 µM) | relative viability (PAC-1; 0.06325 µM) | relative viability (PAC-1; 0.2 µM) | relative viability (PAC-1; 2 µM) | relative viability (Ibrutinib + Alpelisib; first compound 0.005 µM) | relative viability (Ibrutinib + Alpelisib; first compound 0.01581 µM) | relative viability (Ibrutinib + Alpelisib; first compound 0.05 µM) | relative viability (Ibrutinib + Alpelisib; first compound 0.1581 µM) | relative viability (Ibrutinib + Alpelisib; first compound 0.5 µM) | relative viability (BMX-IN-1; 0.02 µM)
1 | LOU-NH91 | 0.973 | 1.08 | 0.989 | 0.801 | 0.926 | 0.848 | 0.884 | 0.678 | 0.891 | 0.959 | 0.917 | 0.972 | 0.652 | 0.597 | 0.592 | 0.67 | 0.48 | –
2 | PC-3 [JPC-3] | 1.12 | 1.11 | 1.06 | 1.03 | 0.97 | 0.906 | 0.912 | 0.638 | 1.06 | 1.08 | 1.05 | 1.03 | 1.03 | 0.946 | 0.941 | 1.04 | 0.517 | 1.08
3 | NCI-H2228 | 1.18 | 0.975 | 1.05 | 1.01 | 0.752 | 1.1 | 0.872 | 0.868 | 0.98 | 1.15 | 0.924 | 1.09 | 0.807 | 0.677 | 0.747 | 0.723 | 0.671 | 1.2
4 | NCI-H1650 | 0.896 | 1.01 | 0.772 | 0.793 | 0.841 | 0.76 | 0.79 | 0.706 | 0.916 | 0.916 | 0.856 | 0.81 | – | – | – | – | – | 1
5 | LCLC-103H | 1.1 | 1.07 | 1.1 | 0.966 | 0.999 | 0.965 | 0.882 | 0.946 | 1 | 0.975 | 1.02 | 1.01 | 0.897 | 0.86 | 1.02 | 0.992 | 0.949 | 1.09
6 | HCC-15 | 1.1 | 1.11 | 1.13 | 1.12 | 1.01 | 1.04 | 0.857 | 1 | 1.09 | 1.08 | 0.969 | 1.08 | 0.956 | 0.867 | 0.99 | 0.853 | 0.851 | 1.11
7 | UMC-11 | 1.1 | 1.09 | 1.03 | 0.75 | 0.931 | 1.01 | 0.937 | 0.922 | 1 | 0.969 | 1 | 1.01 | 0.957 | 1.01 | 0.958 | 1.01 | 0.964 | 1.11
8 | NCI-H2087 | 1.14 | 1.14 | 1.15 | 1.13 | 0.931 | 1.19 | – | 0.99 | 0.872 | 1.06 | 0.929 | 1.04 | 1.09 | – | 1.19 | – | 1.19 | 1.03
9 | NCI-H3122 | 1.06 | 1.04 | 1.04 | 1.05 | 0.989 | 0.996 | 0.895 | 1 | 0.991 | 0.989 | 0.965 | 0.965 | 0.686 | 0.743 | 0.873 | 0.583 | 0.711 | 1.07
